The source made the active and inactive calls. The calls are words filed in the database; no cut-off is given here.
Experiments:
PBMC [1] = assay: Stimulation of immune response in human PBMC assessed as induction of IL10 production at 150 ug/ml after 24 hrs; type: functional, cell-based
Homo sapiens [2] = species: Homo sapiens; assay: Stimulation of immune response in human pDC assessed as induction of IFN-gamma production at 150 ug/ml after 24 hrs; type: functional
Mus musculus [3] = assay: Stimulation of immune response in C57BL/6 mouse assessed as induction of serum chemokine KC production at 50 mg/kg, sc after 2 hrs by luminex multiplex assay; type: functional, organism-based; design: dose 50 mg/kg
PBMC [4] = assay: Stimulation of immune response in human PBMC assessed as induction of IL2R level at 150 ug/ml after 24 hrs; type: functional, cell-based
PBMC [5] = assay: Stimulation of immune response in human PBMC assessed as induction of IFN-gamma production at 150 ug/ml after 24 hrs; type: functional, cell-based
Homo sapiens [6] = species: Homo sapiens; assay: Stimulation of immune response in human pDC assessed as induction of IFNalpha production at 150 ug/ml after 24 hrs; type: functional
Homo sapiens [7] = species: Homo sapiens; assay: Stimulation of immune response in human pDC assessed as induction of MIP1alpha production at 150 ug/ml after 24 hrs; type: functional
PBMC [8] = assay: Stimulation of immune response in human PBMC assessed as induction of RANTES production at 150 ug/ml after 24 hrs; type: functional, cell-based
PBMC [9] = assay: Stimulation of immune response in human PBMC assessed as induction of IL12 production at 150 ug/ml after 24 hrs; type: functional, cell-based
PBMC [10] = assay: Stimulation of immune response in human PBMC assessed as induction of IFNalpha production at 150 ug/ml after 24 hrs; type: functional, cell-based
PBMC [11] = assay: Stimulation of immune response in human PBMC assessed as induction of MCP1 production at 150 ug/ml after 24 hrs; type: functional, cell-based
PBMC [12] = assay: Stimulation of immune response in human PBMC assessed as induction of MIP1alpha production at 150 ug/ml after 24 hrs; type: functional, cell-based
Homo sapiens [13] = species: Homo sapiens; assay: Stimulation of immune response in human pDC assessed as induction of IL12 production at 150 ug/ml after 24 hrs; type: functional
[14] = Stability in human serum assessed as full-length compound remaining after 10 mins by anion-exchange HPLC; type: ADME, cell-free; conditions: read-out: Stability
Mus musculus [15] = assay: Stimulation of immune response in C57BL/6 mouse assessed as induction of serum IL12 production at 50 mg/kg, sc after 2 hrs by luminex multiplex assay; type: functional, organism-based; design: dose 50 mg/kg
[16] = biological target: T1, Toll-like receptor 8 (Homo sapiens) (UniProt Q9NR97); assay: Agonist activity at human TLR8 expressed in HEK293XL cells assessed as NF-kappaB activation after 18 hrs; type: functional, cell-based
T1 sequence (whole entry): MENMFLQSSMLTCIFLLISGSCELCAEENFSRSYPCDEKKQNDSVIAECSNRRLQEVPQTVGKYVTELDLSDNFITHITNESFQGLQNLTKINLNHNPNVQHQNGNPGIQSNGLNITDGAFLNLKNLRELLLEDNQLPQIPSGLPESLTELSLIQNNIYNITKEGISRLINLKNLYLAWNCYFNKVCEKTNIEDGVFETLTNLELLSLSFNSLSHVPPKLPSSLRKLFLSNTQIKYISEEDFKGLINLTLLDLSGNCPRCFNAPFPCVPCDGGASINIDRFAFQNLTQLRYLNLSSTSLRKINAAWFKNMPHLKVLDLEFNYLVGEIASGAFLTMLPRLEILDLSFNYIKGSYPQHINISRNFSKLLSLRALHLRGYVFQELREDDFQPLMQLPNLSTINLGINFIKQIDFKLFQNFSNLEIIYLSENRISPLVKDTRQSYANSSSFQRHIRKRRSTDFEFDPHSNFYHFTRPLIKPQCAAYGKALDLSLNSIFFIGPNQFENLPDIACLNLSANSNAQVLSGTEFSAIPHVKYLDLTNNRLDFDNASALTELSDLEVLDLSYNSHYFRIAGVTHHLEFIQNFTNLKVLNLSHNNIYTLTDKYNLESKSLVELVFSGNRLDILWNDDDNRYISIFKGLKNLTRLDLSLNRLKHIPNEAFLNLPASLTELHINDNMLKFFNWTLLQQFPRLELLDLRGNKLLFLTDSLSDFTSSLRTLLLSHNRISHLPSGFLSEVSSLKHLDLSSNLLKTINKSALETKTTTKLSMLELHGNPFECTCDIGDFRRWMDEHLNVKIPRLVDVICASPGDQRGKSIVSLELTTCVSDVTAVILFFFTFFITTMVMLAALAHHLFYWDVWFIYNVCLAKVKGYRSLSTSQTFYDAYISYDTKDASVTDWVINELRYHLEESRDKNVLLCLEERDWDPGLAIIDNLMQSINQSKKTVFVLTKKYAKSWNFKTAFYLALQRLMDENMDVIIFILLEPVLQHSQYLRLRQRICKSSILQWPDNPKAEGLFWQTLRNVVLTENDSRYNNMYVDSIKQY

Homo sapiens [17] = species: Homo sapiens; assay: Stimulation of immune response in human pDC assessed as induction of TNFalpha production at 150 ug/ml after 24 hrs; type: functional
Homo sapiens [18] = species: Homo sapiens; assay: Stimulation of immune response in human pDC assessed as induction of MIP1beta production at 150 ug/ml after 24 hrs; type: functional
Mus musculus [19] = assay: Stimulation of immune response in C57BL/6 mouse assessed as induction of serum IL10 production at 50 mg/kg, sc after 2 hrs by luminex multiplex assay; type: functional, organism-based; design: dose 50 mg/kg
PBMC [20] = assay: Stimulation of immune response in human PBMC assessed as induction of TNFalpha production at 150 ug/ml after 24 hrs; type: functional, cell-based
[21] = biological target: T2, Toll-like receptor 7 (Homo sapiens) (UniProt Q9NYK1); assay: Agonist activity at human TLR7 expressed in HEK293XL cells assessed as NF-kappaB activation after 18 hrs; type: functional, cell-based
T2 sequence (whole entry): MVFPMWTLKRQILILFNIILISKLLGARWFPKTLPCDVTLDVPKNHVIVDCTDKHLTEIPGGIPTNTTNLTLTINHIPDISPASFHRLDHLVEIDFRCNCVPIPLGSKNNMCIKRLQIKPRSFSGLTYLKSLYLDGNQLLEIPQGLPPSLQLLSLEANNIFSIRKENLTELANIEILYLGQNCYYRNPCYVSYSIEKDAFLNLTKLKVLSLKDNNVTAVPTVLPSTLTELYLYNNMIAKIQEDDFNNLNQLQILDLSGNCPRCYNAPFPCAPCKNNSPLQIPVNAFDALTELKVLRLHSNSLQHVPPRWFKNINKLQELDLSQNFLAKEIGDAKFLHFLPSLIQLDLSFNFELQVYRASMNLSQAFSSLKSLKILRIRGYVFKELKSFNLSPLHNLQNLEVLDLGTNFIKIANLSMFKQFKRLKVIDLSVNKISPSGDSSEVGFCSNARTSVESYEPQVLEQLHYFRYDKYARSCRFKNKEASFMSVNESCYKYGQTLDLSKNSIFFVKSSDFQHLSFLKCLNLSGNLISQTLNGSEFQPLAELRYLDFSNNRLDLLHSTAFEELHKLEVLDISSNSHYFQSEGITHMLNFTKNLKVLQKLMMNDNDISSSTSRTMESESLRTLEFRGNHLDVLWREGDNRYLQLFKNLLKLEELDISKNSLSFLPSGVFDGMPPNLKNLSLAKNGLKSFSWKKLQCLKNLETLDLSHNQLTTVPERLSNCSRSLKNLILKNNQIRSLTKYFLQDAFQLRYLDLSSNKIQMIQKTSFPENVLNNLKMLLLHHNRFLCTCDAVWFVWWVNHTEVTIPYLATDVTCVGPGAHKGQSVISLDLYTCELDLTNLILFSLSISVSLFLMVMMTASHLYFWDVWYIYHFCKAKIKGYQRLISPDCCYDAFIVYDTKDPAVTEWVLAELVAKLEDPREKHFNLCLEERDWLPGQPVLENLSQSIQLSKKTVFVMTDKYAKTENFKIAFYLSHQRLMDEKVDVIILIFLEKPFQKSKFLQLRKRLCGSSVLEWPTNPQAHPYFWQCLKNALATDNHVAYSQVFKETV

PBMC [22] = assay: Stimulation of immune response in human PBMC assessed as induction of IL1-beta production at 150 ug/ml after 24 hrs; type: functional, cell-based
PBMC [23] = assay: Stimulation of immune response in human PBMC assessed as induction of IL8 production at 150 ug/ml after 24 hrs; type: functional, cell-based
PBMC [24] = assay: Stimulation of immune response in human PBMC assessed as induction of MIP1beta production at 150 ug/ml after 24 hrs; type: functional, cell-based

remaining at 10 min [14]: 76%
Activity [16]: Dose-dependent effect
Activity [21]: Dose-dependent effect
SMILES: Nc1ccn([C@@H]2O[C@H](COP(=O)(S)O[C@H]3[C@@H](O)[C@H](n4ccc(=O)[nH]c4=O)O[C@@H]3COP(=O)(S)O[C@H]3[C@H](O)[C@H](n4cnc5c(=O)[nH]c(N)nc54)O[C@@H]3COP(=O)(S)O[C@H]3[C@H](O)[C@H](n4ccc(N)nc4=O)O[C@@H]3COP(=O)(S)O[C@H]3[C@@H](O)[C@H](n4ccc(=O)[nH]c4=O)O[C@@H]3COP(=O)(S)O[C@H]3[C@@H](O)[C@H](n4ccc(=O)[nH]c4=O)O[C@@H]3COP(=O)(S)O[C@H]3[C@@H](O)[C@H](n4cnc5c(=O)[nH]c(N)nc54)O[C@@H]3COP(=O)(S)O[C@H]3[C@@H](O)[C@H](n4ccc(=O)[nH]c4=O)O[C@@H]3COP(=O)(S)O[C@H]3[C@@H](O)[C@H](n4cnc5c(=O)[nH]c(N)nc54)O[C@@H]3COP(=O)(S)OCC(O)COP(=O)(S)O[C@H]3[C@@H](O)[C@H](n4cnc5c(=O)[nH]c(N)nc54)O[C@@H]3COP(=O)(S)O[C@H]3[C@@H](O)[C@H](n4ccc(=O)[nH]c4=O)O[C@@H]3COP(=O)(S)O[C@H]3[C@@H](O)[C@H](n4cnc5c(=O)[nH]c(N)nc54)O[C@@H]3COP(=O)(S)O[C@H]3[C@@H](O)[C@H](n4ccc(=O)[nH]c4=O)O[C@@H]3COP(=O)(S)O[C@H]3[C@@H](O)[C@H](n4ccc(=O)[nH]c4=O)O[C@@H]3COP(=O)(S)O[C@H]3[C@H](O)[C@H](n4ccc(N)nc4=O)O[C@@H]3COP(=O)(S)O[C@H]3[C@@H](O)[C@H](n4cnc5c(=O)[nH]c(N)nc54)O[C@@H]3COP(=O)(S)O[C@H]3[C@@H](O)[C@H](n4ccc(=O)[nH]c4=O)O[C@@H]3COP(=O)(S)O[C@H]3[C@H](O)[C@H](n4ccc(N)nc4=O)O[C@@H]3COP(=O)(S)O[C@H]3[C@@H](O)[C@H](n4cnc5c(=O)[nH]c(N)nc54)O[C@@H]3COP(=O)(S)O[C@H]3[C@@H](O)[C@H](n4ccc(=O)[nH]c4=O)O[C@@H]3CO)[C@@H](OP(=O)(S)OC[C@H]3O[C@@H](n4cnc5c(=O)[nH]c(N)nc54)[C@H](O)[C@@H]3OP(=O)(S)OC[C@H]3O[C@@H](n4ccc(=O)[nH]c4=O)[C@H](O)[C@@H]3OP(=O)(O)S)[C@@H]2O)c(=O)n1 (some centres undefined)
Activity (PBMC [1]): Active
Activity (Homo sapiens [2]): Active
Activity (Mus musculus [3]): Active
Activity (PBMC [4]): Active
Activity (PBMC [5]): Active
Activity (Homo sapiens [6]): Active
Activity (Homo sapiens [7]): Active
Activity (PBMC [8]): Active
Activity (PBMC [9]): Active
Activity (PBMC [10]): Active
Activity (PBMC [11]): Active
Activity (PBMC [12]): Active
Activity (Homo sapiens [13]): Active
Activity (Mus musculus [15]): Active
Activity (Homo sapiens [17]): Active
Activity (Homo sapiens [18]): Active
Activity (Mus musculus [19]): Active
Activity (PBMC [20]): Active
Activity (PBMC [22]): Active
Activity (PBMC [23]): Active
Activity (PBMC [24]): Active

From ChEMBL document CHEMBL1151840, “Synthetic oligoribonucleotides containing arabinonucleotides act as agonists of TLR7 and 8” (Bioorg Med Chem Lett, 2009)
